Measured values published in PubChem BioAssay (NCI).
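Test compounds were applied to cells in 96-well plates for 48 hours at 5 doses. TGI is the concentration that stops growth completely.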 Active and inactive are the calls of the source. Rule as the data show it: active = GI50 below about 0.43 µM; inactive = the rest.

Tests used:
Experiment in all cases: NCI tumour cell line growth inhibition, 48 h
[1] = system: SNB-78 CNS
[2] = system: SW-620 colon
[3] = system: SK-OV-3 ovarian
[4] = system: LOX IMVI melanoma
[5] = system: KM12 colon
[6] = system: HL-60(TB) leukemia
[7] = system: HT29 colon
[8] = system: DLD-1 colon
[9] = system: U251 CNS
[10] = system: OVCAR-8 ovarian
[11] = system: OVCAR-5 ovarian
[12] = system: DMS 273 small cell lung
[13] = system: A549 NSCLC
[14] = system: SN12C renal
[15] = system: SF-539 CNS
[16] = system: ACHN renal
[17] = system: SF-268 CNS
[18] = system: SNB-19 CNS
[19] = system: HCT-15 colon
[20] = system: HOP-62 NSCLC
[21] = system: OVCAR-3 ovarian
[22] = system: UACC-257 melanoma
[23] = system: CAKI-1 renal
[24] = system: RXF 393 renal
[25] = system: SF-295 CNS
[26] = system: SK-MEL-2 melanoma
[27] = system: HOP-92 NSCLC
[28] = system: TK-10 renal
[29] = system: LXFL 529 NSCLC
[30] = system: NCI-H23 lung
[31] = system: K-562 leukemia
[32] = system: 786-0 renal
[33] = system: SR leukemia
[34] = system: RXF-631 renal
[35] = system: IGROV1 ovarian
[36] = system: UACC-62 melanoma
[37] = system: NCI-H226 lung
[38] = system: EKVX NSCLC
[39] = system: SNB-75 CNS
[40] = system: NCI-H522 lung
[41] = system: MALME-3M melanoma
[42] = system: OVCAR-4 ovarian
[43] = system: UO-31 renal
[44] = system: COLO 205 colon
[45] = system: CCRF-CEM leukemia
[46] = system: XF 498 CNS
[47] = system: M14 melanoma
[48] = system: NCI-H460 lung
[49] = system: MOLT-4 leukemia
[50] = system: RPMI-8226 leukemia
[51] = system: KM20L2 colon
[52] = system: HCC-2998 colon
[53] = system: HCT-116 colon
[54] = system: A498 renal
[55] = system: DMS 114 small cell lung
[56] = system: SK-MEL-5 melanoma
[57] = system: M19-MEL melanoma
[58] = system: SK-MEL-28 melanoma

SMILES: C[C@@]1(CO)O[C@H]1CCC#C[Si](C)(C)C
- outcome [1]: inactive
- outcome [2]: inactive
- outcome [3]: inactive
- outcome [4]: inactive
- outcome [5]: inactive
- outcome [6]: inactive
- outcome [7]: inactive
- outcome [8]: inactive
- outcome [9]: inactive
- outcome [10]: inactive
- outcome [11]: inactive
- outcome [12]: inactive
- outcome [13]: inactive
- outcome [14]: inactive
- outcome [15]: inactive
- outcome [16]: inactive
- outcome [17]: inactive
- outcome [18]: inactive
- outcome [19]: inactive
- outcome [20]: inactive
- outcome [21]: inactive
- outcome [22]: inactive
- outcome [23]: inactive
- outcome [24]: inactive
- outcome [25]: inactive
- outcome [26]: inactive
- outcome [27]: inactive
- outcome [28]: inactive
- outcome [29]: inactive
- outcome [30]: inactive
- outcome [31]: inactive
- outcome [32]: inactive
- outcome [33]: inactive
- outcome [34]: inactive
- outcome [35]: inactive
- outcome [36]: inactive
- outcome [37]: inactive
- outcome [38]: inactive
- outcome [39]: inactive
- outcome [40]: inactive
- outcome [41]: inactive
- outcome [42]: inactive
- outcome [43]: inactive
- outcome [44]: inactive
- outcome [45]: inactive
- outcome [46]: inactive
- outcome [47]: inactive
- outcome [48]: inactive
- outcome [49]: inactive
- outcome [50]: inactive
- outcome [51]: inactive

SMILES: CC1=C(C(=O)CC(=O)C(=O)Nc2ccccc2C(F)(F)F)Sc2ccccc2N1
- TGI [1]: > 100 µM
- TGI [2]: > 100 µM
- TGI [3]: > 100 µM
- TGI [4]: > 100 µM
- TGI [5]: > 100 µM
- TGI [52]: > 100 µM
- TGI [6]: > 100 µM
- TGI [7]: > 100 µM
- TGI [8]: > 100 µM
- TGI [9]: > 100 µM
- TGI [10]: > 100 µM
- TGI [11]: > 100 µM
- TGI [12]: > 100 µM
- TGI [13]: > 100 µM
- TGI [14]: > 100 µM
- TGI [15]: > 100 µM
- TGI [16]: > 100 µM
- TGI [17]: 71.4 µM
- TGI [18]: > 100 µM
- TGI [19]: > 100 µM
- TGI [20]: 96.8 µM
- TGI [21]: > 100 µM
- TGI [22]: > 100 µM
- TGI [23]: > 100 µM
- TGI [24]: 66.2 µM
- TGI [25]: > 100 µM
- TGI [26]: > 100 µM
- TGI [27]: 83.5 µM
- TGI [28]: > 100 µM
- TGI [29]: > 100 µM
- TGI [30]: 85.6 µM
- TGI [31]: > 100 µM
- TGI [32]: > 100 µM
- TGI [34]: > 100 µM
- TGI [35]: > 100 µM
- TGI [36]: > 100 µM
- TGI [37]: 87.8 µM
- TGI [53]: > 100 µM
- TGI [38]: > 100 µM
- TGI [54]: > 100 µM
- TGI [55]: > 100 µM
- TGI [39]: 80.1 µM
- TGI [40]: 68.4 µM
- TGI [41]: > 100 µM
- TGI [42]: > 100 µM
- TGI [43]: 61.7 µM
- TGI [44]: > 100 µM
- TGI [45]: > 100 µM
- TGI [46]: > 100 µM
- TGI [56]: > 100 µM
- TGI [47]: > 100 µM
- TGI [48]: > 100 µM
- TGI [50]: > 100 µM
- TGI [51]: > 100 µM

SMILES: COc1ccc(/C(=N\N=C(N)N)C(c2ccc(OC)cc2)C2OC(=O)c3ccccc32)cc1 (centres undefined)
- TGI [1]: > 100 µM
- TGI [2]: > 100 µM
- TGI [3]: > 100 µM
- TGI [4]: > 100 µM
- TGI [5]: > 100 µM
- TGI [52]: > 100 µM
- TGI [6]: > 100 µM
- TGI [7]: > 100 µM
- TGI [8]: > 100 µM
- TGI [9]: > 100 µM
- TGI [10]: > 100 µM
- TGI [11]: > 100 µM
- TGI [12]: > 100 µM
- TGI [13]: > 100 µM
- TGI [14]: > 100 µM
- TGI [15]: > 100 µM
- TGI [16]: > 100 µM
- TGI [17]: > 100 µM
- TGI [18]: > 100 µM
- TGI [19]: > 100 µM
- TGI [20]: > 100 µM
- TGI [21]: > 100 µM
- TGI [57]: > 100 µM
- TGI [22]: > 100 µM
- TGI [23]: > 100 µM
- TGI [24]: > 100 µM
- TGI [58]: > 100 µM
- TGI [25]: > 100 µM
- TGI [27]: > 100 µM
- TGI [29]: > 100 µM
- TGI [30]: > 100 µM
- TGI [31]: > 100 µM
- TGI [32]: > 100 µM
- TGI [33]: > 100 µM
- TGI [34]: > 100 µM
- TGI [35]: > 100 µM
- TGI [36]: > 100 µM
- TGI [37]: > 100 µM
- TGI [53]: > 100 µM
- TGI [55]: > 100 µM
- TGI [39]: > 100 µM
- TGI [40]: > 100 µM
- TGI [41]: > 100 µM
- TGI [42]: > 100 µM
- TGI [43]: > 100 µM
- TGI [44]: > 100 µM
- TGI [45]: > 100 µM
- TGI [46]: > 100 µM
- TGI [56]: > 100 µM
- TGI [47]: > 100 µM
- TGI [48]: > 100 µM
- TGI [49]: > 100 µM
- TGI [50]: > 100 µM
- TGI [51]: > 100 µM
